Results taken from the Kinase Knowledgebase extract (Sharma et al. 2016).
pIC50, pKd: −log10 of the molar value.

Target: CDK2 (UniProt P24941)
Assay: Enzyme Assay

Row | pIC50 | SMILES
1 | < 5.00 | COc1ccc2c(c1)C(=NNc1ccccc1)C(=O)N2
2 | 7.52 | CN1CCC(c2c(O)cc(O)c3c2O/C(=C\c2ccc(S(N)(=O)=O)cc2)C3=O)CC1
3 | 5.40 | CN1CCC(c2c(O)cc(O)c3c2O/C(=C\c2ccccc2Cl)C3=O)CC1
4 | < 5.00 | O=C1Nc2ccccc2C1=NNc1ccccc1
5 | 6.51 | CN1CCC(c2c(O)cc(O)c3c2O/C(=C\c2ccc([N+](=O)[O-])cc2)C3=O)CC1
6 | < 5.00 | O=C1Nc2ccc(Br)cc2C1=NNc1ccccc1
7 | 8.00 | CN(C)S(=O)(=O)c1ccc(NN=C2C(=O)Nc3ccc(O)cc32)cc1
8 | 5.89 | CN1CCC(c2c(O)cc(O)c3c2O/C(=C\c2ccccc2)C3=O)CC1

Target: MAPK14 (UniProt Q16539)
Assay: Inhibition of MAPK14 Kinase Activity

MAPK14, sequence (Q16539 whole entry, looked up): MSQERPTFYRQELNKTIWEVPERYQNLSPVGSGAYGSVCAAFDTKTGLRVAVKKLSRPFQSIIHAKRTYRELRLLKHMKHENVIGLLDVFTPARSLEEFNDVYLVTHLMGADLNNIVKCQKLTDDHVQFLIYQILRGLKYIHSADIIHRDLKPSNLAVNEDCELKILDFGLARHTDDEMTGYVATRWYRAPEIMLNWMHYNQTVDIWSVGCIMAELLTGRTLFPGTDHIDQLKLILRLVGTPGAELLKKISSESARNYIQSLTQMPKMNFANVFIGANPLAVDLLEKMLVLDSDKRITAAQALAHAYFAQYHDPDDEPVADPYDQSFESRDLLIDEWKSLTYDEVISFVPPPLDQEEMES

Row | pKd | SMILES
9 | 6.48 | CC(C)c1cc(NC(=O)Nc2ccccc2)n(-c2ccccc2)n1
10 | 6.70 | Cc1ccccc1-n1nc(C(C)(C)C)cc1NC(=O)Nc1ccccc1
11 | 6.55 | CC1(c2cc(NC(=O)Nc3ccccc3)n(-c3ccccc3)n2)CCOCC1
12 | < 5.15 | Cc1cc(NC(=O)Nc2ccccc2)n(-c2ccccc2)n1
13 | 8.52 | Cc1cccc(NC(=O)Nc2cc(C(C)(C)C)nn2-c2ccccc2)c1C
14 | 8.40 | Cc1ccc(-n2nc(C(C)(C)C)cc2NC(=O)Nc2ccccc2)cc1C
15 | 8.70 | Cc1cccc(-n2nc(C(C)(C)C)cc2NC(=O)Nc2ccccc2)c1
16 | 7.92 | CCC(C)(C)c1cc(NC(=O)Nc2ccccc2)n(-c2ccccc2)n1
17 | 8.15 | CC(C)(C)c1cc(NC(=O)Nc2ccccc2)n(-c2ccc(N)cc2)n1
18 | 7.68 | CC(C)(C)c1cc(NC(=O)Nc2ccccc2)n(-c2ccncc2)n1
19 | 8.30 | CC(C)(C)c1cc(NC(=O)Nc2cccc3ccccc23)n(-c2ccccc2)n1
20 | 6.30 | CC(C)(C)c1cc(NC(=O)Nc2ccccc2)n(C2CCCCC2)n1
21 | 6.40 | CC(C)(C)c1cc(NC(=O)Nc2ccccn2)n(-c2ccccc2)n1
22 | 7.72 | COc1cccc(-n2nc(C(C)(C)C)cc2NC(=O)Nc2ccccc2)c1
23 | 7.51 | COc1ccc(-n2nc(C(C)(C)C)cc2NC(=O)Nc2ccccc2)cc1
24 | 7.85 | CC(C)(C)c1cc(NC(=O)NC2Cc3ccccc3C2)n(-c2ccccc2)n1

Row | pKd | SMILES
25 | 6.38 | CC(C)(C)c1cc(NC(=O)Nc2cccnc2)n(-c2ccccc2)n1
26 | 7.66 | CC1(c2cc(NC(=O)Nc3ccccc3)n(-c3ccccc3)n2)CCCCC1
27 | 7.33 | CC(C)(C)c1cc(NC(=O)NCc2ccccc2)n(-c2ccccc2)n1
28 | < 5.15 | CC(C)(C)c1cc(NC(N)=O)n(-c2ccccc2)n1
29 | 5.92 | CC(C)(C)c1cc(NC(=O)Nc2ccncc2)n(-c2ccccc2)n1
30 | 6.89 | CC(C)(C)c1cc(NC(=O)NC2CCCCC2)n(-c2ccccc2)n1
31 | 6.50 | CC(C)(C)c1cc(NC(=O)Nc2ccc(N)cc2)n(-c2ccccc2)n1
32 | 6.59 | CC(C)(C)c1cc(NC(=O)NCCc2ccccc2)n(-c2ccccc2)n1
33 | 7.89 | CC(C)(C)c1cc(NC(=O)Nc2ccccc2)n(-c2ccccc2)n1
34 | 9.00 | Cc1ccc(-n2nc(C(C)(C)C)cc2NC(=O)Nc2cccc3ccccc23)cc1
35 | 8.10 | CC(C)(C)c1cc(NC(=O)Nc2ccc(Cl)cc2)n(-c2ccccc2)n1
36 | 8.10 | CC(C)(C)c1cc(NC(=O)Nc2ccccc2)n(-c2ccc3ccccc3c2)n1
37 | < 6.40 | O=C(Nc1ccccc1)Nc1cc(C2CCCCC2)nn1-c1ccccc1
38 | 5.85 | COCC(C)(C)c1cc(NC(=O)Nc2ccccc2)n(-c2ccccc2)n1
39 | 7.00 | CC(C)(C)c1cc(NC(=O)Nc2cccc(N)c2)n(-c2ccccc2)n1
40 | 6.12 | CC(C)(c1ccccc1)c1cc(NC(=O)Nc2ccccc2)n(-c2ccccc2)n1

Row | SMILES | pKd
41 | Cc1ccc(-n2nc(C(C)(C)C)cc2NC(=O)Nc2ccccc2)cc1 | 8.52
42 | Cc1ccc(-n2nc(C(C)(C)C)cc2NC(=O)Nc2ccccc2F)cc1 | 7.85
